Results reported in patent publication US6015805A, “17β-nitro-11β-arylisteroids and their derivatives having agonist or antagonist hormonal properties” (Research Triangle Research North Carolina, priority 1999, dated 2000).

Columns and labels:
[1] = biological target: T1, human progesterone hormone receptor (hPR) (Homo sapiens, UniProt P06401); test: Receptor binding (human), inhibition of [^3 H]-R5020 binding; settings: cytosol from human T-47D cells; 0.4 nM [^3 H]-R5020; 4 hours at 4° C.
T1 construct: The receptor was obtained in cytosol from human T-47D breast cells; endogenous in cells; host or cells: T-47D human breast cells (cytosol)
T1 sequence (P06401 1-933): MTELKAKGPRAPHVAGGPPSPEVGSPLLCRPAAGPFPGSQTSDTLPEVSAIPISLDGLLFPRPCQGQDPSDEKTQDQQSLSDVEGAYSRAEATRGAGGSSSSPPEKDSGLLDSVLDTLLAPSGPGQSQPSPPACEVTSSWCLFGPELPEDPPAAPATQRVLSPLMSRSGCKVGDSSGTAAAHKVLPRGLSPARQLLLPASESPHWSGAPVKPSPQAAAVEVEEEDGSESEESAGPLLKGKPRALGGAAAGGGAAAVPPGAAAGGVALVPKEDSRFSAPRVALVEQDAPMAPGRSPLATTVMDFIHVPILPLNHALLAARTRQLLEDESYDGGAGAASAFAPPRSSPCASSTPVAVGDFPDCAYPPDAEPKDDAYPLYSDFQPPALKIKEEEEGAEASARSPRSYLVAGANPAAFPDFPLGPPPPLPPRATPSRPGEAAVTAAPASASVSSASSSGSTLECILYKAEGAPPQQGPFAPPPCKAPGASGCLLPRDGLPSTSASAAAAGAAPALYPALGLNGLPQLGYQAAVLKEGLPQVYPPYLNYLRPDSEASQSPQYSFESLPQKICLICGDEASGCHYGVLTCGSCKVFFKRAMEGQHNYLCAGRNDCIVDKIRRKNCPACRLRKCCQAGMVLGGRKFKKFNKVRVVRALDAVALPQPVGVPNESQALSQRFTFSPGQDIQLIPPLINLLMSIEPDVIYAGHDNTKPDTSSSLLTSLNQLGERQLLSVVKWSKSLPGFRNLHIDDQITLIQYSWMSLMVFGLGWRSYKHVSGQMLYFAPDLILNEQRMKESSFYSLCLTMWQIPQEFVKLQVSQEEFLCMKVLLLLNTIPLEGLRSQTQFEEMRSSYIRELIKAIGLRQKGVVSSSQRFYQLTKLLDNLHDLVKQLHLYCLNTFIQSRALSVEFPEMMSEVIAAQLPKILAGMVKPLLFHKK
Protocol: The affinity of the compounds for hormone receptors for progestins and glucocorticoids from rabbits was determined by standard procedures similar to those that have been described in C. E. Cook, et al., Human Reproduction, Volume 9, supplement 1, pp. 32-39 (1994). However, the source of the glucocorticoid receptor was the thymus of the estrogen-primed immature female rabbit. The affinity of the compounds for the human progesterone hormone receptor was determined by standard procedures similar to those that have been described in Horwitz, et al., Cell, 28: 633-42 (1982) and Mockus, et al., Endocrinology, 110: 1564-71 (1982). The receptor was obtained in cytosol from human T-47D breast cells and [^3 H]-R5020 was used as the radioligand. T47D cells (1 billion/mL) were homogenized in TEDG buffer (10 mM Tris, 1.5 mM EDTA, 1 mM dithiothreitol, 1 mM sodium molybdate, and 10% glycerol) using a Dounce pestle A, and the homogenate was centrifuged at 34,000×g for 1 hour. The supernatant was stored at -80° C. An aliquot of receptor preparation was combined with test compound, 0.4 nM [^3 H]-R5020, and TEDG buffer to a final volume of 150 ,μL and incubated for 4 hours at 4° C. in microtiter plates. At the end of incubation 40 μL 40% polyethylene glycol and 15 μL 1% human gamma globulin was added to the incubate and the contents of each well were harvested onto double thick B filter mats (Wallac LKB) using a TomTec harvester. A film of Meltilux scintillant wax was applied to the dried filter mats and the mats were counted in a scintillation counter to determine inhibition of [^3 H]-R5020 binding. Data are expressed as lC50 values, i.e., the concentration of compound that inhibits radioligand binding by 50%.

human T-47D breast cells [2] = test: T47D cell proliferation, antagonist format (inhibition of R5020-mediated [^3 H]-thymidine incorporation); assay type: cell-based; settings: for EC50: Homo sapiens, T47D, concentration which inhibits 0.15 nM R5020-mediated proliferation by 50%; for Cell Proliferation, Antagonist Format % inhibition: maximum % inhibition, 0.15 nM R5020
Protocol: (§1) Human T-47D breast cells grown in nutrient media were incubated with the standard progestin R5020 alone or with R5020 plus test compound and then assessed by standard procedures for proliferation using incorporation of [^3 H]-thymidine as the measurement. […] The maximum % inhibition (a measure of the efficacy of the compounds) is also given. In the agonist format of this assay the compounds were tested at concentrations ranging from 0.01 to 10 nM and the maximum % stimulation at any dose is listed in Table 3.

human T-47D breast cells [3] = test: T47D cell proliferation, agonist format; assay type: cell-based; settings: maximum % stimulation at any dose, 0.01 to 10 nM
Protocol: as §1

With CC(=O)c1ccc([C@H]2C[C@@]3(C)[C@@H](CC[C@]3(CCCO)[N+](=O)[O-])[C@@H]3CCC4=CC(=O)CCC4=C32)cc1 [I 4-CH3 CO H O H --(CH2)3 OH, 11β-(4-Acetylphenyl)-17α-(3-hydroxypropyl)-17β-nitroestra-4,9-dien-3-one] as the compound, how does the IC50 [1] read?
Its IC50 is 16 nM.

What about the EC50 (human T-47D breast cells [2]) of the same compound?
The EC50 was 175 nM.

What about the “Cell Proliferation, Antagonist Format % inhibition” value (human T-47D breast cells [2]) of the same compound?
Its value is 96%.

And the Emax (human T-47D breast cells [3])?
The Emax was 41%.

Which IC50 [1] does the source give for CC#C[C@]1([N+](=O)[O-])CC[C@H]2[C@@H]3CCC4=CC(=O)CCC4=C3[C@@H](c3ccc(C(C)=O)cc3)C[C@@]21C [I 4-CH3 CO H O H --CC--CH3, 11β-(4-Acetylphenyl)-17β-nitro-17α-(1-propynyl)estra-4,9-dien-3-one] here?
The IC50 was 0.8 nM.

And the EC50 (human T-47D breast cells [2])?
The EC50 was 3.3 nM.

What about the “Cell Proliferation, Antagonist Format % inhibition” value (human T-47D breast cells [2]) of the same compound?
The value was 90%.

What about the Emax (human T-47D breast cells [3]) of the same compound?
The Emax was 35%.

Which IC50 [1] does the source give for CC(=O)c1ccc([C@H]2C[C@@]3(C)[C@@H](CC[C@]3(/C=C/CO)[N+](=O)[O-])[C@@H]3CCC4=CC(=O)CCC4=C32)cc1 [I 4-CH3 CO H O H CH=CHCH2 OH, 11β-(4-acetylphenyl)-17α-(E-3-hydroxy-1-propenyl)-17β-nitroestra-4,9-dien-3-one] here?
Its IC50 is 26.1 nM.

And the EC50 (human T-47D breast cells [2])?
The EC50 was 122 nM.

And the “Cell Proliferation, Antagonist Format % inhibition” value (human T-47D breast cells [2])?
The value was 86%.

And the Emax (human T-47D breast cells [3])?
The Emax was 52%.

Which results are given for CN(C)c1ccc([C@H]2C[C@@]3(C)[C@@H](CC[C@]3(CCCO)[N+](=O)[O-])[C@@H]3CCC4=CC(=O)CCC4=C32)cc1 [I 4-Me2 N H O H --(CH2)3 OH, 11β-[4-(N,N-Dimethylamino)phenyl]-17α-(3-hydroxypropyl)-17β-nitroestra-4,9-dien-3-one]?
IC50 [1]: 4.1 nM; EC50 (human T-47D breast cells [2]): 12 nM; Cell Proliferation, Antagonist Format % inhibition (human T-47D breast cells [2]): 89%; Emax (human T-47D breast cells [3]): 33%

With CC1=[N+]([O-])C2(CC1)CCC1C3CCC4=CC(=O)CCC4=C3C(c3ccc(N(C)C)cc3)CC12C (stereo not drawn) [II 4-Me2 N H O H -- CH3, 3',4'-dihydro-11β-(4-(N,N-dimethylamino)phenyl)-5'-methyl-1'-oxo-spiro[estra-4,9-dien-17β,2'(2'H)-pyrrole]-3-one] as the compound, how does the IC50 [1] read?
Its IC50 is 10.2 nM.
